Laboratory results reported in patent US12241058B2, “Recombinant microbial system for directed evolution of glycocins and method of preparation thereof” (COUNCIL OF SCIENTIFIC & INDUSTRIAL RESEARCH, priority 2018, dated 2025).
No end group written: not given here. *: point of attachment. X1 = OC[C@H]1O[C@@H](O[C@H]2[C@H](O)[C@@H](O)[C@H](*)O[C@@H]2CO)[C@H](O)[C@@H](O)[C@@H]1O

Legend:
[1] = Cytotoxicity MTT reduction assay; assay type: cell-based; conditions: human; 50% cell death, THP-1 cells, MTT, 18-24 hours
Description: (§1) Cytotoxicity of Enterocin 96 and its variants (neo-glycocins) against THP-1 cells and anti-cancer potential against HepG2 cells was measured by the conventional MTT reduction assay. HepG2 and THP-1 cells (1×10^4 cells/well) were seeded into the 96-well plate and cultured at 37° C. in an atmosphere of 5% CO2 to allow them to adhere overnight. After 24 hours, the cells were exposed to Enterocin 96 and its variants (neo-glycocins) at various concentrations (75-1000 μM) for 18-24 hours. After the incubation period, 150 μl media and the suspended cells were discarded and washed with 200 μl PBS. After that, 200 μl of fresh media was added followed by 20 μl of MTT (5 mg/mL) into each well in the 96-well plate and incubated for 4 h in CO2 incubator. One hundred and fifty microlitres of medium with MTT was removed from every well and 100 μl DMSO was added to each well to solubilize the formazan crystal by incubating for 20 min in CO2 incubator. Finally, the plates were read at 570 nm by using Multiskan Go plate-reader (Thermo Scientific) and then percentage of cell viability was determined.

L. monocytogenes EGD-e = test: Agar diffusion test (ADT) of cell lysates, zone of growth inhibition, with PAS staining for glycosylation; assay type: cell-based, Listeria monocytogenes; conditions: for Zone of inhibition as well as glycosylation positive: ADT against L. monocytogenes, cleavage buffer treated cell lysate, glycosylation by PAS staining
[2] = test system: L. monocytogenes MTCC 839; test: Agar diffusion test (ADT) of cleaved neo-glycocins; assay type: cell-based, Listeria monocytogenes; conditions: L. monocytogenes MTCC 839, FIG. 5Bd-e
[3] = test system: Bacillus licheniformis MTCC 9857; test: Agar diffusion test (ADT) of cleaved neo-glycocins; assay type: cell-based
Description: (§2) FIG. 5B (d-i): Confirmation of antimicrobial activity of cleaved neo glycocins against bacterial strains namely L. monocytogenes EGDe (FIG. 5Bd-e): Vibrio cholera MTCC 3904 (FIG. 5Bf), E. coli 1610 (FIG. 5Bg), Bacillus lichenmformis MTCC 9857 (FIG. 5Bh) and Bacillus halodurans MTCC 7181 (FIG. 5Bi) using ADT;
Wherein #1, h and i: cell lysate of cleavage buffer treated C13T, a variant of Enterocin 96 having SEQ ID NO: 10; #2, h and i: positive control parent peptide Enterocin 96 diglycosylated having SEQ ID NO: 9; #3, h and i: negative control/cleavage buffer; #4, h and i: is nisin (1 mg/ml).
(§3) The cell lysate containing glycocins were directly subjected to agar diffusion test (ADT) using L. monocytogenes EGD-e. In ADT, the agar plates seeded with L. monocytogenes EGD-e (approximately 10^7 cells) were prepared. Approximately 100 μL lysate containing glycocin or its variants (neo-glycocin) (SEQ ID NO: 9, SEQ ID NO: 10 and SEQ ID NO: 11) were applied into the wells in the seeded plate followed by incubation of the plate at 4° C. for 1 h. Presence of inhibition zones around the wells was checked post overnight incubation of the plates at 37° C. The antimicrobial activities of the glycocin and neo-glycocin were determined by monitoring the zone of growth inhibition on the plates.

E. coli MTCC 1610 = test: Agar diffusion test (ADT) of cleaved neo-glycocins; assay type: cell-based
Description: as §2
Where in #1, f and g: cell lysate of cleavage buffer treated C13T, a variant of Enterocin 96 having SEQ ID NO: 10; #2, f and g: positive control parent peptide Enterocin 96 diglycosylated having SEQ ID NO: 9; #3, f and g: negative control/lysis buffer; #4.f and g: is negative control/cleavage buffer;
as §3

L. monocytogenes [4] = test: pH and heat stability, bioactivity verified using ADT assay; conditions: 121° C. for 15 minutes
THP-1 cells = test: Cytotoxicity MTT reduction assay; assay type: cell-based
Description: as §1

bacterial strains = test: Antimicrobial spectrum by ADT against bacterial strains; assay type: cell-based; conditions: FIG. 5B a-i
Description: as §2
Simultaneously, to check the change in spectrum of bioactivity of neo-glycocins, the agar plates of L. monocytogenes EGD-e seeded with approximately 10^7 bacterial cells were prepared. A 100 μL of cell lysate of mutants were added into the each well and then the plate was incubated at 4° C. for 1 h followed by overnight incubation at 37° C. The presence of inhibition zones around the wells was checked. The antimicrobial activity was determined by monitoring the zone of growth inhibition. […] The glycosylation status of the neo-glycocin produced from the selected mutant were analyzed using PAS staining and MALDI-TOF and LC-ESI-MS analysis as discussed below.

human red blood cells = test: Hemolytic assay; assay type: cell-based
Description: Samples were prepared within 3 h of performing the assay. Neo-glycocins stock solutions of 1 mg/ml were prepared by dissolving the neo-glycocins in PBS (10 mM phosphate buffer, pH 7.4); the samples were mixed by inversion to ensure neo-glycocins were completely dissolved in PBS. To prepare the Human Red Blood Cell (hRBC) solution, blood was collected from healthy individual and RBCs were isolated following standard procedure. Informed consent was acquired from all donors and this work was carried out in compliance with the ethical committee guidelines of CSIR-IMTECH with IEC NO SUIEC/14/03.
2 ml whole blood from healthy individual was centrifuged for 30 mins at 1000 rpm(4° C.). Layer of RBCs was collected and diluted with equal volume of 1×PBS and mixture was centrifuged three times for 10 mins at 1000 rpm, 4° C. To prepare 4% RBC solution, 1 ml of RBC were mixed with 24 ml 1×PBS. To examine the hemolysis property of neo-glycocins (75-1000 μM), 20 μl of freshly prepared neo-glycocins solution was mixed with 180 μl of freshly prepared hRBC solution and was placed at 37° C. for 1 h. A total of 20 μl of PBS buffer only and 20 μl of Triton X-100 1% (w/v) were mixed with 180 μl of hRBC solution as negative and positive controls, respectively. After 1 h of incubation, all samples were centrifuged at 2500 rpm for 10 min. A total of 100 μl of supernatant was collected, and the release of hemoglobin was monitored by measuring the absorbance of the supernatant at 570 nm with a Multiskan Go plate-reader (Thermo Scientific). Hemolysis percentage for each sample was calculated by dividing sample's absorbance on positive control absorbance (complete hemolysis) multiplied by 100.

HepG2 cells = test: Anti-cancer MTT reduction assay; assay type: cell-based
Description: as §1

L. monocytogenes [5] = test: Determination of the MIC against L. monocytogenes (96-well broth dilution); assay type: cell-based, Listeria monocytogenes; conditions: Minimum Inhibitory Concentration against L. monocytogenes, 18 h at 37° C.
Description: One colony of an indicator strain (L. monocytogenes) was picked from an NB agar plate, inoculated to liquid NB medium and grown at 37° C., in a shaking incubator until OD^600 nm of 0.5 was reached. Then, the culture was diluted with NB medium and serial twofold dilutions with NB medium were made. Hundred microliters of Enterocin 96 solution (1 mg/ml in MQ) were transferred to a 96-well plate and mixed with 100 μl previously prepared cell suspension of sensitive strain. Similarly, positive control Nisin (1 mg/ml in MQ, Sigma Cat. # N5764), 100 μl mixture of NB medium with the Listeria, and negative controls (media alone, untreated indicator strain). 100 μL mixture of NB medium were prepared and dispersed in the same 96-well plates. The plate was incubated for 18 h at 37° C. in a shaking incubator. After incubation, the growth of bacteria was evaluated visually and by a plate reader. The analyses were performed in triplicate. Similarly, MIC of other variants of Enterocin 96 (neo-glycocins) was determined using above described method.

Substance: MASKRDCNLMKACCAGQAVTYAIHSLLNRLGGDC(X1)SDPAGCNDIVRKYCK (cysteines drawn unpaired) [SEQ ID NO: 40]
- IC50 [1]: 314.7 ± 0.18 µM
- Zone of inhibition as well as glycosylation positive (L. monocytogenes EGD-e): positive
- Zone of inhibition as well as glycosylation positive (L. monocytogenes EGD-e; listed as S34C): Yes
- Bioactivity compared with the parent peptide (L. monocytogenes EGD-e; ADT, L. monocytogenes EGDe, FIG. 5Bd-e): equally bioactive
- Bioactivity compared with the parent peptide [2]: equally bioactive

Substance: MASKRDCNLMKACCAGQAVTYAIHSLLNRLGGDS(X1)SDPAGCNDIVRKYCK (cysteines drawn unpaired) [SEQ ID NO: 9, Enterocin 96, reference compound]
- Bioactivity against Gram positive spore forming bacteria Bacillus licheniformis MTCC 9857 [3]: not
- IC50 [1]: 194.1 ± 0.119 µM
- Bioactivity against Gram negative bacteria E. coli MTCC 1610 (E. coli MTCC 1610): not

Substance: MASKRDCNLMKATCAGQAVTYAIHSLLNRLGGDS(X1)SDPAGCNDIVRKYCK (cysteines drawn unpaired) [SEQ ID NO: 10]
- Bioactivity against L. monocytogenes post autoclaving (L. monocytogenes [4]): retain bioactivity
- Bioactivity against Gram positive spore forming bacteria Bacillus licheniformis MTCC 9857 [3]: observed
- IC50 [1]: 248.6 ± 0.105 µM
- Cytotoxicity compared with Nisin and Enterocin 96 (THP-1 cells; THP-1, FIG. 6B): no significant change
- Antimicrobial spectrum compared with native glycocin / Nisin and Enterocin 96 (bacterial strains): different antimicrobial spectrum
- Antimicrobial spectrum compared with native glycocin / Nisin and Enterocin 96 (bacterial strains; listed as C13T): improved antibacterial spectrum
- Water solubility (Water solubility): water soluble
- Zone of inhibition as well as glycosylation positive (L. monocytogenes EGD-e): positive
- Zone of inhibition as well as glycosylation positive (L. monocytogenes EGD-e; listed as C13T): Yes
- Hemolysis compared with Nisin and Enterocin 96 (human red blood cells; FIG. 6A): no significant change
- Cytotoxicity compared with Nisin and Enterocin 96 (HepG2 cells; HepG2, FIG. 6C): no significant change
- Bioactivity against Gram negative bacteria E. coli MTCC 1610 (E. coli MTCC 1610): observed

Substance: neo-glycocin with pediocin box (YYGNGV): MASKYYGNGVKRDCNLMKACCAGQAVTYAIHSLLNRLGGDSSDPAGCNDIVRKYCK (not fully specified; cysteine pairing not given here) [SEQ ID NO: 11]
- IC50 (THP-1 cells; 50% cell death, THP-1 cells, MTT, 18-24 hours): 233.6 ± 0.132 µM
- Antimicrobial spectrum compared with native glycocin / Nisin and Enterocin 96 (bacterial strains): different antimicrobial spectrum
- Zone of inhibition as well as glycosylation positive (L. monocytogenes EGD-e): positive
- Zone of inhibition as well as glycosylation positive (L. monocytogenes EGD-e; listed as PedioEnt96): Yes
- Activity against L. monocytogenes compared with diglycosylated glycocin (L. monocytogenes EGD-e; monoglycosylated length and glycan variant, strain not specified): as active as diglycosylated glycocin
- Hemolysis (MHC in μM) (human red blood cells): 600 µM
- IC50 (HepG2 cells; 50% cell (cancerous) death, HepG2 cells, MTT, 18-24 hours): 192.1 ± 0.135 µM
- Anti-bacterial activity (MIC in μM) (L. monocytogenes [5]): >0.54 µM
